The test system of this assay is 931267-113-T-J1-PDC KRAS spheroid with HUVEC/MSC, viability. As to the kind of experiment: Anticancer human tumor 931267-113-T-J1-PDC patient-derived colon adenocarcinoma cell line growth inhibition [KRAS2]. The following applies: for viability, T/C: stronger effect = lower value. From the text: Multicellular complex tumor spheroid response to RAS pathway inhibitors in combination with a targeted agents in patient-derived cell lines with oncogenic KRAS variants from multiple cancer types
A high-throughput screen of multi-cell type tumor spheroids was designed to identify active combinations of targeted small molecules and KRAS pathway inhibitors. Complex spheroids include a stromal component modeled by human endothelial cells (HUVEC) and fibroblasts modeled by human mesenchymal stem cells (MSCs). The concentration ranges selected for each drug and investigational agent were based upon clinically achievable concentrations if the clinical Cmax of the agent was known.
Compounds. The drugs and investigational agents: BI-3406 (NSC825286), BAY-293 (NSC824723), batoprotafib (TNO155; NSC825523), sotorasib (AMG 510; NSC818433), MRTX1257 (NSC819558), elimusertib (BAY 1895344; NSC800525), molibresib (GSK525762; NSC774829), temuterkib (LY3214996; NSC803410), venetoclax (NSC766270), alisertib (NSC759677), olaparib (NSC753686), talazoparib (NSC767125), erdafitinib (NSC781556), ipatasertib (NSC767898), cabozantinib (NSC761068), nintedanib (NSC756659), abemaciclib (NSC768073), docetaxel (NSC628503), trametinib (NSC758246), and sapanisertib (NSC764658) were obtained from the National Cancer Institute (NCI) Developmental Therapeutics Program Chemical Repository. The FDA-approved anticancer drug set is available from the Developmental Therapeutics Program. […] The stock solutions were prepared in dimethyl sulfoxide (DMSO, Sigma-Aldrich, St. Louis, MO, cat. D2650) at 800-fold the tested concentration and stored at -70 degrees C prior to their use. All drugs and investigational agents were tested over a range starting from a high concentration at or near the clinical Cmax and decreasing in half-log increments. If the clinical Cmax for an agent had not been determined, the highest concentration tested was 10 microM.
Cell Culture. All cells were maintained in an incubator at 37 degrees C and 5% CO2 with 95% humidity. The PDC lines were cultured according to standard operating procedures established by the NCI PDMR (https://pdmr.cancer.gov/sops/default.htm). Briefly, all PDCs were thawed and cultured in Matrigel-coated flasks prepared with a working solution of 1X Ham's F-12 nutrient mix, without supplementation (Invitrogen, Waltham, MA, cat. 11765054), 100 U/mL penicillin-streptomycin (Invitrogen, cat. 15140122), and 2.5% Matrigel (Corning Inc., Corning, NY, cat. 354248) for the first three passages. All PDCs were cultured in complete DMEM/F-12 media containing advanced DMEM/F-12 (Invitrogen, cat. 12634028), 4.9% defined fetal bovine serum, heat inactivated (HyClone Laboratories Inc., Logan, UT, cat. SH30070.03HI), 389 ng/mL hydrocortisone (Sigma-Aldrich, cat. H4001), 9.7 ng/mL human EGF recombinant protein (Invitrogen, cat. PHG0313), 23.4 microg/mL adenine (Sigma-Aldrich, cat. A2786), 97.3 U/mL penicillin-streptomycin (Invitrogen, cat. 15140122), 1.9 mM L-glutamine (Invitrogen, cat. 25030081), and 9.7 microM Y-27632 dihydrochloride (Tocris Bioscience, Bristol, United Kingdom, cat. 1254). The PDCs were cultured in complete DMEM/F12 media without 9.7 microM Y-27632 dihydrochloride for at least two passages prior to the screen. The established cell line HOP-62 was cultured in RPMI 1640 medium, HEPES (Invitrogen, cat. 22400105) with 10% defined fetal bovine serum (HyClone Laboratories Inc., cat. SH30070.03) and 2 mM L-glutamine (Invitrogen, cat. 25030081). The pooled donor HUVEC were cultured in endothelial cell growth medium 2 (PromoCell, Heidelberg, Germany, cat. C-22011) and the hMSC were cultured in mesenchymal stem cell growth medium 2 (PromoCell, cat. C-28009). For all experiments, HUVEC and hMSC were used at passages </=5, while the malignant cell lines were used at passages </=15. […]

[1] abbreviates: compound alone, run of 08/26/2021.
Where [2] appears, read: compound alone, run of 09/02/2021.
The mark [3] stands for this setting: curve of first compound, second compound 0.1 µM.
Where [4] appears, read: curve of first compound, second compound 0.316 µM.
The mark [5] stands for this setting: curve of first compound, second compound 1 µM.
Where [6] appears, read: curve of first compound, second compound 3.16 µM.
Where [7] appears, read: curve of first compound, second compound 10 µM.
The mark [8] stands for this setting: second compound 0.1 µM, first compound 0.01 µM.
[9] abbreviates: second compound 0.1 µM, first compound 0.0316 µM.
The mark [10] stands for this setting: second compound 0.1 µM, first compound 0.1 µM.
[11] abbreviates: second compound 0.316 µM, first compound 0.01 µM.
The mark [12] stands for this setting: second compound 0.316 µM, first compound 0.0316 µM.
[13] abbreviates: second compound 0.316 µM, first compound 0.1 µM.
Where [14] appears, read: second compound 1 µM, first compound 0.01 µM.
The mark [15] stands for this setting: second compound 1 µM, first compound 0.0316 µM.
[16] abbreviates: second compound 1 µM, first compound 0.1 µM.
[17] abbreviates: second compound 3.16 µM, first compound 0.01 µM.
[18] abbreviates: second compound 3.16 µM, first compound 0.0316 µM.
[19] abbreviates: second compound 3.16 µM, first compound 0.1 µM.
[20] abbreviates: second compound 10 µM, first compound 0.01 µM.
The mark [21] stands for this setting: second compound 10 µM, first compound 0.0316 µM.
[22] abbreviates: second compound 10 µM, first compound 0.1 µM.

Several values for one entry are separate records, joined by “and”; a condition that tells them apart may be missing. Identical values can stand only once.
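Also: compound exposure lasted 7 days before the readout.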

One may read the IC50 as the concentration needed to halve the response being measured. On to `C=CC(=O)N1CCN(c2nc(OCC3CCCN3C)nc3c2CCN(c2cccc4cccc(C)c24)C3)CC1CC#N` (stereo unspecified), for which the IC50 by setting is: under setting [1], 1.65 µM [middle of 5 runs]; under setting [2], 1.62 µM [middle of 5 runs].
A word on the viability, T/C: it is the result in the treated group divided by that in the control group, in per cent. On to `CNCc1ccccc1-c1csc(C(C)Nc2nc(C)nc3cc(OC)c(OC)cc23)c1` (stereo unspecified), for which the viability, T/C (compound 10 µM) is 0.16% [middle of 14 runs]. Moreover, the half-maximal inhibitory concentration (IC50) by setting is: under setting [1], 1.13 µM [middle of 5 runs]; under setting [2], 952 nM [middle of 5 runs].
As for `COc1cc(OC)cc(N(CCNC(C)C)c2ccc3ncc(-c4cnn(C)c4)nc3c2)c1`, the viability, T/C was 101% [middle of 5 runs] (compound 0.1 µM), 107% [middle of 5 runs] (compound 0.316 µM), 107% [middle of 5 runs] (compound 1 µM) and 0.45% [middle of 4 runs] (compound 10 µM). Also, where the note is “curve of compound”, the IC50 was 4.66 µM [middle of 4 runs].
As for `COc1cc2nc(C)nc(NC(C)c3cc(N)cc(C(F)(F)F)c3)c2cc1OC1CCOC1` (stereo unspecified), the IC50 under setting [1] is 4.74 µM [middle of 4 runs] and the IC50 under setting [2] is 4.4 µM [middle of 6 runs].
`COc1cc2nccc(Oc3ccc(NC(=O)C4(C(=O)Nc5ccc(F)cc5)CC4)cc3)c2cc1OC`: the viability, T/C reads like this: (compound 0.316 µM) 96.5% [middle of 5 runs]; (compound 1 µM) 105% [middle of 5 runs]; (compound 3.16 µM) 60.4% [middle of 5 runs]. Moreover, the 50% inhibitory concentration (IC50) (curve of compound) was > 10 µM and 6.16 µM and 10 µM.
As for `CC(=O)OC12COC1CC(O)C1(C)C(=O)C(O)C3=C(C)C(OC(=O)C(O)C(NC(=O)OC(C)(C)C)c4ccccc4)CC(O)(C(OC(=O)c4ccccc4)C21)C3(C)C` (stereo unspecified) + C=CC(=O)N1CCN(c2nc(=O)n(-c3c(C)ccnc3C(C)C)c3nc(-c4c(O)cccc4F)c(F)cc23)C(C)C1, the IC50 under setting [3] is > 3.16 µM; the IC50 under setting [4] is > 3.16 µM; the half-inhibitory concentration (IC50) under setting [5] was > 3.16 µM; the concentration for half-maximal inhibition (IC50) under setting [6] was > 3.16 µM; the 50% inhibitory concentration (IC50) under setting [7] is > 3.16 µM. Also, the viability, T/C was 93.1% under setting [8]; 96.3% under setting [9]; 83.3% under setting [10]; 82.9% (second compound 0.1 µM, first compound 0.316 µM); 84.2% (second compound 0.1 µM, first compound 1 µM); 102% (second compound 0.1 µM, first compound 3.16 µM). Moreover, the viability, T/C under setting [11] is 94.4%; the viability, T/C under setting [12] is 116%; the viability, T/C under setting [13] is 110%; the viability, T/C (second compound 0.316 µM, first compound 0.316 µM) was 77.6%; the viability, T/C (second compound 0.316 µM, first compound 1 µM) was 110%; the viability, T/C (second compound 0.316 µM, first compound 3.16 µM) is 119%. In addition, the viability, T/C is 102% under setting [14]; 106% under setting [15]; 103% under setting [16]; 81% (second compound 1 µM, first compound 0.316 µM); 117% (second compound 1 µM, first compound 1 µM); 90.6% (second compound 1 µM, first compound 3.16 µM). For the same molecule, the viability, T/C is 103% under setting [17]; 93.9% under setting [18]; 91.1% under setting [19]; 96.8% (second compound 3.16 µM, first compound 0.316 µM); 99.6% (second compound 3.16 µM, first compound 1 µM); 113% (second compound 3.16 µM, first compound 3.16 µM). Also, the viability, T/C reads like this: under setting [20], 87.1%; under setting [21], 116%; under setting [22], 98.7%; (second compound 10 µM, first compound 0.316 µM) 110%; (second compound 10 µM, first compound 1 µM) 116%; (second compound 10 µM, first compound 3.16 µM) 113%.
Take `CN(C)C/C=C/C(=O)Nc1cc2c(Nc3ccc(F)c(Cl)c3)ncnc2cc1O[C@H]1CCOC1` + C=CC(=O)N1CCN(c2nc(=O)n(-c3c(C)ccnc3C(C)C)c3nc(-c4c(O)cccc4F)c(F)cc23)C(C)C1: the IC50 reads like this: under setting [3], > 0.1 µM; under setting [4], > 0.1 µM; under setting [5], > 0.1 µM; under setting [6], > 0.1 µM; under setting [7], > 0.1 µM. Also, the viability, T/C runs as follows: (second compound 0.1 µM, first compound 0.000316 µM) 103%; (second compound 0.1 µM, first compound 0.001 µM) 91.6%; (second compound 0.1 µM, first compound 0.00316 µM) 76.1%; under setting [8], 83.5%; under setting [9], 115%; under setting [10], 117%. Moreover, the viability, T/C (second compound 0.316 µM, first compound 0.000316 µM) is 97.5%; the viability, T/C (second compound 0.316 µM, first compound 0.001 µM) is 105%; the viability, T/C (second compound 0.316 µM, first compound 0.00316 µM) was 95.1%; the viability, T/C under setting [11] was 96.1%; the viability, T/C under setting [12] was 117%; the viability, T/C under setting [13] is 98.6%. Moreover, the viability, T/C reads like this: (second compound 1 µM, first compound 0.000316 µM) 110%; (second compound 1 µM, first compound 0.001 µM) 121%; (second compound 1 µM, first compound 0.00316 µM) 83.7%; under setting [14], 90.8%; under setting [15], 84.9%; under setting [16], 96.5%. The viability, T/C runs as follows: (second compound 3.16 µM, first compound 0.000316 µM) 138%; (second compound 3.16 µM, first compound 0.001 µM) 128%; (second compound 3.16 µM, first compound 0.00316 µM) 117%; under setting [17], 95%; under setting [18], 126%; under setting [19], 105%. Moreover, the viability, T/C runs as follows: (second compound 10 µM, first compound 0.000316 µM) 146%; (second compound 10 µM, first compound 0.001 µM) 138%; (second compound 10 µM, first compound 0.00316 µM) 119%; under setting [20], 99.2%; under setting [21], 110%; under setting [22], 108%.
